Measured values taken from US5354748A, “Oral antibacterial compositions and method for the improvement of gastrointestinal absorption of penem or carbapenem antibiotics” (Suntory Limited, priority 1991, dated 1994).
Read-outs that look alike come from different tables or passages of the source.

How the values were obtained:
in vivo = assay: in vivo; parameters: species or system Sprague-Dawley male rats; conditions: rat, plasma, iv, 11.4 mg/kg, intravenous penem 11.4 mg (titer)/Kg
Protocol: The blood was collected during the period of from 0.1 to 1.5 hours after the administration. The concentrations of the free acid of the penem in plasma samples were measured by high performance liquid chromatography (HPLC) to determine the area under the plasma concentration:time curve (AUC).

[1] = Plasma concentration and urinary excretion of penem in dogs, capsules with glutathione (Example 7); type: in vivo; conditions: dog, po, 75 mg; for AUC at 4 h / Cmax: plasma
Protocol: Namely, the penemcarboxylate and glutathione were mixed in amounts of 75 mg (titer) and 75, 15 or 3.75 mg, respectively, per capsule. The resultant mixed powder was filled in a capsule. Capsules were prepared in the manner described above.

[2] = dog, in vivo
Protocol: Capsules were prepared by filling capsules with a 12.6:1 or 126:1 (by molar ratio) mixture of sodium (1'R,2"R,5R,6S)-6-(1'-hydroxyethyl)-2-(2"-tetrahydrofuranyl)penem-3-carboxylate 2.5 hydrate and cilastatin, namely, with a powder mixture consisting of 75 mg of the penem carboxylate and 7.5 or 0.75 mg of cilastatin per capsule. One of the capsules was orally administered to matured dogs. The blood was collected during the period of from 0.25 to 4 hours after the administration, and the concentrations of the free acid of the penem in plasma samples were measured by HPLC. Further, urine samples were collected until 24 hours after the administration and the concentrations of the free acid of the penem in the urine samples were measured by HPLC.
The area under the concentration:time curve (AUCpO) Of the compound contained in the plasma after its oral administration was compared to the area under the concentration:time curve (AUCiv) when the penemcarboxylate alone was intravenously administered at 10 mg/Kg and, assuming AUCiv be 100%, the percentage of AUCpo was calculated in accordance with the following formula and recorded as Oral Absorption Percentage A. Similarly, assuming that the percentage of excretion of the above penemcarboxylate into urine (Uiv) upon its intravenous administration at 10 mg/Kg be 100%, Oral Absorption Percentage B was calculated in accordance with the following formula from the percentage of excretion of the penemcarboxylate into urine upon its oral administration (Upo).
Oral absorption A (%)=AUCpo/AUCiv×10/75×100
Oral absorption B (%)=Upo/Uiv×100

[3] = Plasma concentration of penem in rats, oral penem with oral N-acetyl-L-cysteine (Example 8); type: in vivo, Sprague-Dawley male rats; conditions: rat, 57.1 mg/kg, oral 57.1 mg (titer)/Kg
Protocol: Seven-week-old Sprague-Dawley male rats were orally administered with 57.1 mg (titer)/Kg of sodium (1'R,2"R,5R,6S)-6-(1'-hydroxyethyl)-2-(2"-tetrahydrofuranyl)penem-3-carboxylate 2.5 hydrate. At the same time, N-acetyl-L-cysteine was orally administered at 57.1 mg/Kg. The blood was collected during the period of from 0.1 to 2.0 hours after the administration.
The concentrations of the free acid of the penem in plasma samples were measured by high performance liquid chromatography (HPLC) to determine the highest concentration in plasma and the area under the plasma concentration: time curve (AUC).

[4] = Plasma concentration of penem in rats, oral penem with oral glutathione (Example 6); type: in vivo, Sprague-Dawley male rats; conditions: rat; for AUC at 2 h / Cmax: plasma, po, 57.1 mg/kg, oral 57.1 mg (titer)/Kg
Protocol: (§1) Seven-week-old Sprague-Dawley male rats were orally administered with 57.1 mg (titer)/Kg of sodium (1'R,2"R,5R,6S)-6-(1'-hydroxyethyl)-2-(2"-tetrahydrofuranyl)penem-3-carboxylate 2.5 hydrate. At the same time, glutathione was orally administered at 57.1 or 5.71 mg/Kg. The blood was collected during the period of from 0.1 to 2.0 hours after the administration. The concentrations of the free acid of the penem in plasma samples were measured by high performance liquid chromatography (HPLC) to determine the highest concentration in plasma and the area under the plasma concentration:time curve (AUC).

[5] = Plasma concentration of penem in rats, oral penem with oral cilastatin (Example 5); type: in vivo, Sprague-Dawley male rats; conditions: rat; for AUC at 1.5 h / Cmax: plasma, po, 57.1 mg/kg, oral 57.1 mg (titer)/Kg; for Cmax: read-out: Highest concentration in plasma
Protocol: as §1, with “time, cilastatin” for “time, glutathione”, “at 7.17, 0.717” for “at 57.1”, “or 0.0717” for “or 5.71”, “to 1.5” for “to 2.0”

[6] = Oral absorption of penem in rats with simultaneous administration of cilastatin (Example 3); type: in vivo, Sprague-Dawley male rats; conditions: rat; for AUC at 2 h / Cmax / bioavailability: plasma, po, 57.1 mg/kg, oral 57.1 mg (titer)/Kg; for bioavailability: read-out: Absorption (Oral Absorption Percentage A)
Protocol: Those compositions were separately and orally administered to seven-week-old, Sprague-Dawley male rats to give a dose of 57.1 mg (titer)/Kg in terms of the penem carboxylate. The blood was drawn from the femoral artery via a polyethylene catheter over 2.0 hours after the administration.

[7] = single administration (penem alone)
[8] = single administration (penem alone), read-out: Highest concentration in plasma

SMILES: C[C@@H](O)[C@H]1C(=O)N2C(C(=O)O)=C([C@H]3CCCO3)S[C@H]12 [sodium (1'R,2"R,5R,6S)-6-(1'-hydroxyethyl)-2-(2"-tetrahydrofuranyl)penem-3-carboxylate 2.5 hydrate]
- AUC at 1.5 h (in vivo; cilastatin 0 (penem alone)): 7170 ng·h/mL
- AUC at 1.5 h (in vivo; cilastatin 0.0717 mg/Kg oral): 6860 ng·h/mL
- AUC at 1.5 h (in vivo; cilastatin 0.717 mg/Kg oral): 5670 ng·h/mL
- AUC at 1.5 h (in vivo; cilastatin 7.17 mg/Kg oral): 6740 ng·h/mL
- AUC at 4 h ([1]; oral capsule 75 mg (titer), penem:glutathione molar ratio 1.1:1): 33700 ng·h/mL
- Cmax ([1]; oral capsule 75 mg (titer), penem:glutathione molar ratio 1.1:1, read-out: Highest concentration in plasma): 22700 ng/mL
- Cmax ([1]; oral, single administration (penem alone), read-out: Highest concentration in plasma): 11600 ng/mL
- AUC at 4 h [1, 7]: 17700 ng·h/mL
- dose excreted at 24 h ([1]; urine, oral, single administration (penem alone), up to 24 hours, read-out: Excretion into urine): 16.7%
- Increase of oral absorption percentage (from AUC) relative to penemcarboxylate alone [2]: 2.3 times
- Oral absorption A [2]: 33.9%
- Increase of oral absorption percentage (from excretion into urine) relative to penemcarboxylate alone ([2]; 1440 min): 2.3 times
- Oral absorption B ([2]; 24 h): 38.6%
- Highest concentration in plasma ([2]; po): 11.86 µg/mL
- AUC ([2]; po, 4 h): 18620 ng·h/mL
- Excretion into urine ([2]; po, 24 h): 16.58%
- AUC at 2 h ([3]; penem:N-acetyl-L-cysteine molar ratio 0.6:1): 5240 ng·h/mL
- Cmax ([3]; penem:N-acetyl-L-cysteine molar ratio 0.6:1, read-out: Highest concentration in plasma): 6790 ng/mL
- AUC at 2 h [3, 7]: 2520 ng·h/mL
- Cmax [3, 8]: 3290 ng/mL
- Increase of AUC relative to penem alone ([4]; oral, glutathione 1/11 of the penem): 1.2 times
- AUC at 2 h ([4]; penem:glutathione molar ratio 1.1:1): 6160 ng·h/mL
- Cmax ([4]; penem:glutathione molar ratio 1.1:1, read-out: Highest concentration in plasma): 5840 ng/mL
- AUC at 2 h ([4]; penem:glutathione molar ratio 11:1): 5540 ng·h/mL
- Cmax ([4]; penem:glutathione molar ratio 11:1, read-out: Highest concentration in plasma): 5030 ng/mL
- AUC at 2 h [4, 7]: 4570 ng·h/mL
- Cmax [4, 8]: 4340 ng/mL
- Increase of AUC relative to single administration ([5]; oral, at each cilastatin dosage (7.17, 0.717, 0.0717 mg/Kg)): 2.8-4.8 times
- AUC at 1.5 h ([5]; cilastatin 0 (penem alone)): 4420 ng·h/mL
- Cmax ([5]; cilastatin 0 (penem alone)): 4810 ng/mL
- AUC at 1.5 h ([5]; cilastatin 0.0717 mg/Kg oral): 12200 ng·h/mL
- Cmax ([5]; cilastatin 0.0717 mg/Kg oral): 6890 ng/mL
- AUC at 1.5 h ([5]; cilastatin 0.717 mg/Kg oral): 21100 ng·h/mL
- Cmax ([5]; cilastatin 0.717 mg/Kg oral): 8680 ng/mL
- AUC at 1.5 h ([5]; cilastatin 7.17 mg/Kg oral): 19600 ng·h/mL
- Cmax ([5]; cilastatin 7.17 mg/Kg oral): 12700 ng/mL
- Increase of oral absorption percentage relative to single administration ([6]; oral, cilastatin 1/2000 of the penem carboxylate): 2.5 times
- AUC at 2 h ([6]; penem:cilastatin molar ratio 1:1): 25900 ng·h/mL
- Cmax ([6]; penem:cilastatin molar ratio 1:1, read-out: Highest concentration in plasma): 12400 ng/mL
- bioavailability ([6]; penem:cilastatin molar ratio 1:1, vs AUCiv): 114%
- AUC at 2 h ([6]; penem:cilastatin molar ratio 10:1): 19600 ng·h/mL
- Cmax ([6]; penem:cilastatin molar ratio 10:1, read-out: Highest concentration in plasma): 12700 ng/mL
- bioavailability ([6]; penem:cilastatin molar ratio 10:1, vs AUCiv): 86.3%
- AUC at 2 h ([6]; penem:cilastatin molar ratio 100:1): 21100 ng·h/mL
- Cmax ([6]; penem:cilastatin molar ratio 100:1, read-out: Highest concentration in plasma): 8680 ng/mL
- bioavailability ([6]; penem:cilastatin molar ratio 100:1, vs AUCiv): 93%
- AUC at 2 h ([6]; penem:cilastatin molar ratio 300:1): 18300 ng·h/mL
- Cmax ([6]; penem:cilastatin molar ratio 300:1, read-out: Highest concentration in plasma): 7890 ng/mL
- bioavailability ([6]; penem:cilastatin molar ratio 300:1, vs AUCiv): 80.3%
- AUC at 2 h ([6]; penem:cilastatin molar ratio 600:1): 14900 ng·h/mL
- Cmax ([6]; penem:cilastatin molar ratio 600:1, read-out: Highest concentration in plasma): 8080 ng/mL
- bioavailability ([6]; penem:cilastatin molar ratio 600:1, vs AUCiv): 65.6%
- AUC at 2 h ([6]; penem:cilastatin molar ratio 1000:1): 12200 ng·h/mL
- Cmax ([6]; penem:cilastatin molar ratio 1000:1, read-out: Highest concentration in plasma): 6890 ng/mL
- bioavailability ([6]; penem:cilastatin molar ratio 1000:1, vs AUCiv): 53.7%
- AUC at 2 h ([6]; penem:cilastatin molar ratio 2000:1): 10900 ng·h/mL
- Cmax ([6]; penem:cilastatin molar ratio 2000:1, read-out: Highest concentration in plasma): 7690 ng/mL
- bioavailability ([6]; penem:cilastatin molar ratio 2000:1, vs AUCiv): 48.1%
- AUC at 2 h [6, 7]: 4420 ng·h/mL
- Cmax [6, 8]: 4810 ng/mL
- bioavailability ([6]; single administration (penem alone), vs AUCiv): 19.4%
